# Counter-ions that a name gives are not always drawn.
# System: clot lysis (fibrinolysis) in diluted human citrated plasma, tPA-induced
# Experiment: Plasma-based clot lysis assay (5%)
# Type: biochemical
# Conditions: human citrated platelet-poor plasma 5%, fibrinogen 3 μM, CaCl2 10 mM, tPA 0.2 nM, 37° C., OD at 405 nm
# Method: B-2. Plasma-based Clot Lysis Assay (5%)
# The clot-lysis test system configures the kinetics of clot formation and degradation in vitro and allows quantifying modulation of the process by selected test compounds.
# The test compounds were dissolved in 1% acetic acid and further complemented with an equal volume of DMSO. The resulting stock solutions were serially diluted in 0.5% acetic acid/50% DMSO. 1 μL aliquots of these solutions were placed into 384 well microplates (Greiner, black, transparent bottom), followed by 30 μL of diluted human citrated plasma (platelet-poor, final concentration: 5%; supplemented with fibrinogen, final concentration: 3 μM; dilution buffer: 20 mM HEPES, 150 mM NaCl, 0.01% Brij (pH 7)). The reactions were started by addition of 20 μL of CaCl2 (final concentration: 10 mM), and tPA (tissue plasminogen activator, final concentration: 0.2 nM) in dilution buffer, followed by an additional volume of 20 μL dilution buffer for improved mixing. The reactions were incubated at 37° C. […] IC50 values were determined by comparing the resulting time courses with the time course of a blank control reaction.
row,Compound,IC50
1,"COCCCNC(=O)c1cnn2c(C3CCNCC3)cc(=O)[nH]c12 [Example 88, N-(3-methoxypropyl)-5-oxo-7-(piperidin-4-yl)-4,5-dihydropyrazolo[1,5-a]pyrimidine-3-carboxamide hydrochloride]",49 nM
2,"NC(=O)CCNC(=O)c1cnn2c(C3CCNCC3)cc(=O)[nH]c12 [Example 89, N-(3-amino-3-oxopropyl)-5-oxo-7-(piperidin-4-yl)-4,5-dihydropyrazolo[1,5-a]pyrimidine-3-carboxamide hydrochloride]",140 nM
3,"CCC(=O)N1CCN(C(=O)c2cnn3c(C4CCNCC4)cc(=O)[nH]c23)CC1 [Example 98, 7-(piperidin-4-yl)-3-[(4-propanoylpiperazin-1-yl)carbonyl]pyrazolo[1,5-a]pyrimidin-5(4H)-one hydrochloride]",90 nM
4,"O=C1CCN(C(=O)c2cnn3c(C4CCNCC4)cc(=O)[nH]c23)CCN1 [Example 100, 3-[(5-oxo-1,4-diazepan-1-yl)carbonyl]-7-(piperidin-4-yl)pyrazolo[1,5-a]pyrimidin-5(4H)-one hydrochloride]",110 nM
5,"COCC(C)(C)c1noc(-c2cnn3c(C4CCNCC4)cc(=O)[nH]c23)n1 [Example 105, 3-[3-(1-methoxy-2-methylpropan-2-yl)-1,2,4-oxadiazol-5-yl]-7-(piperidin-4-yl)pyrazolo[1,5-a]pyrimidin-5(4H)-one]",95 nM
6,"O=c1cc(C2CCNCC2)n2ncc(-c3nc(Cc4ccccc4)no3)c2[nH]1 [Example 106, 3-(3-benzyl-1,2,4-oxadiazol-5-yl)-7-(piperidin-4-yl)pyrazolo[1,5-a]pyrimidin-5(4H)-one]",63 nM
7,"CCc1noc(-c2cnn3c(C4CCNCC4)cc(=O)[nH]c23)n1 [Example 107, 3-(3-ethyl-1,2,4-oxadiazol-5-yl)-7-(piperidin-4-yl)pyrazolo[1,5-a]pyrimidin-5(4H)-one]",49 nM
8,"O=c1cc(C2CCNCC2)n2ncc(-c3nc(C4CCC4)no3)c2[nH]1 [Example 108, 3-(3-cyclobutyl-1,2,4-oxadiazol-5-yl)-7-(piperidin-4-yl)pyrazolo[1,5-a]pyrimidin-5(4H)-one]",76 nM
9,"O=c1cc(C2CCNCC2)n2ncc(-c3nc(-c4ccc(F)s4)no3)c2[nH]1 [Example 109, 3-[3-(5-fluorothiophen-2-yl)-1,2,4-oxadiazol-5-yl]-7-(piperidin-4-yl)pyrazolo[1,5-a]pyrimidin-5(4H)-one]",120 nM
10,O=c1cc(C2CCNCC2)n2ncc(-c3nc(-c4ccco4)no3)c2[nH]1 [Example 110],82 nM
11,"O=c1cc(C2CCNCC2)n2ncc(-c3nc(-c4ccc(C(F)(F)F)cc4)no3)c2[nH]1 [Example 113, 7-(Piperidin-4-yl)-3-{3-[4-(trifluoromethyl)phenyl]-1,2,4-oxadiazol-5-yl}pyrazolo[1,5-a]pyrimidin-5(4H)-one hydrochloride]",44 nM
12,"Cc1ccccc1-c1noc(-c2cnn3c(C4CCNCC4)cc(=O)[nH]c23)n1 [Example 119, 3-[3-(2-Methylphenyl)-1,2,4-oxadiazol-5-yl]-7-(piperidin-4-yl)pyrazolo[1,5-a]pyrimidin-5 (4H)-one hydrochloride]",79 nM
13,"Cc1ccc(-c2noc(-c3cnn4c(C5CCNCC5)cc(=O)[nH]c34)n2)cc1Cl [Example 123, 3-[3-(3-Chloro-4-methylphenyl)-1,2,4-oxadiazol-5-yl]-7-(piperidin-4-yl)pyrazolo[1,5-a]pyrimidin-5(4H)-one hydrochloride]",47 nM
14,"Cc1ccc(-c2noc(-c3cnn4c(C5CCNCC5)cc(=O)[nH]c34)n2)c(C)c1 [Example 127, 3-[3-(2,4-Dimethylphenyl)-1,2,4-oxadiazol-5-yl]-7-(piperidin-4-yl)pyrazolo[1,5-a]pyrimidin-5(4H)-one hydrochloride]",62 nM
15,"Cc1ccc(-c2noc(-c3cnn4c(C5CCNCC5)cc(=O)[nH]c34)n2)c(C(F)(F)F)c1 [Example 128, 3-{3-[4-Methyl-2-(trifluoromethyl)phenyl]-1,2,4-oxadiazol-5-yl}-7-(piperidin-4-yl)pyrazolo[1,5-a]pyrimidin-5(4H)-one hydrochloride]",110 nM

# Continued, values first:
row,IC50,Compound
1,30 nM,"O=C(Nc1cccc(Cl)c1F)c1cnn2c(C3CCNCC3)cc(=O)[nH]c12 [Example 87, N-(3-chloro-2-fluorophenyl)-5-oxo-7-(piperidin-4-yl)-4,5-dihydropyrazolo[1,5-a]pyrimidine-3-carboxamide hydrochloride]"
2,33 nM,"O=C(NCCN1CCOC1=O)c1cnn2c(C3CCNCC3)cc(=O)[nH]c12 [Example 92, 5-oxo-N-[2-(2-oxo-1,3-oxazolidin-3-yl)ethyl]-7-(piperidin-4-yl)-4,5-dihydropyrazolo[1,5-a]pyrimidine-3-carboxamide hydrochloride]"
3,22 nM,"CC(C)(C)CNC(=O)c1cnn2c(C3CCNCC3)cc(=O)[nH]c12 [Example 93, N-(2,2-dimethylpropyl)-5-oxo-7-(piperidin-4-yl)-4,5-dihydropyrazolo[1,5-a]pyrimidine-3-carboxamide hydrochloride]"
4,30 nM,"O=C(NC1(Cc2ccccc2)CC1)c1cnn2c(C3CCNCC3)cc(=O)[nH]c12 [Example 94, N-(1-benzylcyclopropyl)-5-oxo-7-(piperidin-4-yl)-4,5-dihydropyrazolo[1,5-a]pyrimidine-3-carboxamide hydrochloride]"
5,43 nM,"O=C(c1cnn2c(C3CCNCC3)cc(=O)[nH]c12)N1CCC(O)CC1 [Example 95, 3-[(4-hydroxypiperidin-1-yl)carbonyl]-7-(piperidin-4-yl)pyrazolo[1,5-a]pyrimidin-5(4H)-one hydrochloride]"
6,33 nM,"CCCN(CC)C(=O)c1cnn2c(C3CCNCC3)cc(=O)[nH]c12 [Example 96, N-ethyl-5-oxo-7-(piperidin-4-yl)-N-propyl-4,5-dihydropyrazolo[1,5-a]pyrimidine-3-carboxamide hydrochloride]"
7,24 nM,"CN(Cc1ccccc1)C(=O)c1cnn2c(C3CCNCC3)cc(=O)[nH]c12 [Example 97, N-benzyl-N-methyl-5-oxo-7-(piperidin-4-yl)-4,5-dihydropyrazolo[1,5-a]pyrimidine-3-carboxamide hydrochloride]"
8,35 nM,"CN(CC(F)(F)F)C(=O)c1cnn2c(C3CCNCC3)cc(=O)[nH]c12 [Example 103, N-methyl-5-oxo-7-(piperidin-4-yl)-N-(2,2,2-trifluoroethyl)-4,5-dihydropyrazolo[1,5-a]pyrimidine-3-carboxamide hydrochloride]"
9,31 nM,"CC1CCCN(C(=O)c2cnn3c(C4CCNCC4)cc(=O)[nH]c23)C1C (stereo not drawn) [Example 104, 3-[(2,3-dimethylpiperidin-1-yl)carbonyl]-7-(piperidin-4-yl)pyrazolo[1,5-a]pyrimidin-5(4H)-one hydrochloride]"
10,29 nM,"O=c1cc(C2CCNCC2)n2ncc(-c3nc(-c4cccc(F)c4)no3)c2[nH]1 [Example 112, 3-[3-(3-Fluorophenyl)-1,2,4-oxadiazol-5-yl]-7-(piperidin-4-yl)pyrazolo[1,5-a]pyrimidin-5 (4H)-one hydrochloride]"
11,27 nM,"O=c1cc(C2CCNCC2)n2ncc(-c3nc(-c4ccc(OC(F)(F)F)cc4)no3)c2[nH]1 [Example 115, 7-(Piperidin-4-yl)-3-{3-[4-(trifluoromethoxy)phenyl]-1,2,4-oxadiazol-5-yl}pyrazolo[1,5-a]pyrimidin-5(4H)-one hydrochloride]"
12,39 nM,"COc1cc(-c2noc(-c3cnn4c(C5CCNCC5)cc(=O)[nH]c34)n2)ccc1C [Example 116, 3-[3-(3-Methoxy-4-methylphenyl)-1,2,4-oxadiazol-5-yl]-7-(piperidin-4-yl)pyrazolo[1,5-a]pyrimidin-5(4H)-one hydrochloride]"
13,38 nM,"Cc1ccc(-c2noc(-c3cnn4c(C5CCNCC5)cc(=O)[nH]c34)n2)cc1F [Example 117, 3-[3-(3-Fluoro-4-methylphenyl)-1,2,4-oxadiazol-5-yl]-7-(piperidin-4-yl)pyrazolo[1,5-a]pyrimidin-5(4H)-one hydrochloride]"
14,35 nM,"Cc1cccc(-c2noc(-c3cnn4c(C5CCNCC5)cc(=O)[nH]c34)n2)c1 [Example 120, 3-[3-(3-Methylphenyl)-1,2,4-oxadiazol-5-yl]-7-(piperidin-4-yl)pyrazolo[1,5-a]pyrimidin-5 (4H)-one hydrochloride]"
15,35 nM,"COc1ccc(-c2noc(-c3cnn4c(C5CCNCC5)cc(=O)[nH]c34)n2)cc1F [Example 122, 3-[3-(3-Fluoro-4-methoxyphenyl)-1,2,4-oxadiazol-5-yl]-7-(piperidin-4-yl)pyrazolo[1,5-a]pyrimidin-5(4H)-one hydrochloride]"
16,38 nM,"O=c1cc(C2CCNCC2)n2ncc(-c3nc(-c4cccc(OC(F)(F)F)c4)no3)c2[nH]1 [Example 124, 7-(Piperidin-4-yl)-3-{3-[3-(trifluoromethoxy)phenyl]-1,2,4-oxadiazol-5-yl}pyrazolo[1,5-a]pyrimidin-5(4H)-one hydrochloride]"
17,40 nM,"COc1cccc(-c2noc(-c3cnn4c(C5CCNCC5)cc(=O)[nH]c34)n2)c1 [Example 125, 3-[3-(3-Methoxyphenyl)-1,2,4-oxadiazol-5-yl]-7-(piperidin-4-yl)pyrazolo[1,5-a]pyrimidin-5 (4H)-one hydrochloride]"
18,41 nM,"Cc1ccc(-c2noc(-c3cnn4c(C5CCNCC5)cc(=O)[nH]c34)n2)c(Cl)c1 [Example 130, 3-[3-(2-Chloro-4-methylphenyl)-1,2,4-oxadiazol-5-yl]-7-(piperidin-4-yl)pyrazolo[1,5-a]pyrimidin-5(4H)-one hydrochloride]"
